Earlier results as cited in patent US20070213409A1, “USE OF PREPARATIONS FOR SKIN ENZYME PROTECTION” (BEIERSDORF AG, priority 2005, published 2007).
Where a name gives a salt, the structure may show the parent alone.

Assays:
[1] = system: stratum corneum chymotryptic enzyme (SCCE); conditions: competitive inhibition; associated with reduced desquamation
[2] = system: stratum corneum tryptic enzyme (SCTE); conditions: competitive inhibition; associated with reduced desquamation
[3] = system: desquamation (SCCE and SCTE serine proteases)

Compound | effect on activity of SCCE [1] | effect on activity of SCTE [2] | skin flakes in vivo after topical application [3]
CC(C)CCC[C@@H](C)[C@H]1CC[C@H]2[C@@H]3CC=C4C[C@@H](OS(=O)(=O)O)CC[C@]4(C)[C@H]3CC[C@]12C [cholesterol-3 sulfate] | reduces | reduces | 
CC(=O)N[C@@H](CC(C)C)C(=O)N[C@@H](CC(C)C)C(=O)N[C@H](C=O)CCCNC(=N)N [leupeptin] |  |  | more skin flakes
aprotinin |  |  | more skin flakes
